Assays:
Assay type in all cases: in vivo
adult female Balb/c mice = assay: LPS-induced lethality (IP dosing); conditions: 11 × 300 μg/mouse IP (3.3 mg), every 4 hr; 0.6 mg LPS; vs control mice
Protocol: These experiments were performed based on information reported by Rivier et al., Endocrinology 125:2800-2805 (1989), which is incorporated herein by reference. Adult female Balb/c mice were provided food and water ad libitum. Mice were injected IP every four hr for 40 hr with 30 to 300 μg EX-2, EX-3 or EX-4 in 0.2 ml saline (treated group) or with 0.2 ml saline, alone (control group) (10 mice per group). Immediately following the first injection, 0.6 mg LPS endotoxin in 0.2 ml saline was administered to each mouse. Following LPS injection, EX-2 or saline was administered to the treated mice or the control mice, respectively, every 4 hr for 36 hr.

male Sprague-Dawley rats [1] = assay: Glomerulonephritis (nephrotoxic serum), albuminuria; conditions: EX-2 100 μg/kg per injection, 3 times per day; nephrotoxic serum iv
Protocol: Male Sprague-Dawley rats (weight 194-248 g) were immunized by subcutaneous injection of 1 mg normal rabbit IgG (Sigma Chemical Co.) in Freund's complete adjuvant (Sigma Chemical Co.). EX-2 was administered 3 times per day (100 μg/kg per injection) throughout the duration of the experiment. Seven days later, the rats were injected with 1.5 ml of nephrotoxic serum iv via dorsal penile vein. Urine, plasma, and serum were collected before injection of nephrotoxic serum at 4, 6, 24, 48, and 96 hr thereafter. […] Albuminuria was quantified by immunoelectrophoresis.

TNF-α = assay: Reduction of LPS-induced TNF levels in mice (IP dosing); conditions: 30 μg/mouse IP before LPS 5 mg/kg IP; vs untreated control mice
Protocol: Balb/c female mice weighing approximately 20 g were placed into two groups, a control group and a treated group. Five mg/kg of LPS in 0.9% saline was administered by intraperitoneal (IP) injection into the control mice. Mice in the treated group were first injected IP with 30 μg EX-2 or 150 μg EX-3 in saline, then, one mn after EX-2 or EX-3 was administered, the mice received LPS as described for the control group.
Blood samples were collected from the orbital sinus of treated and control mice at various times up to four hr after LPS was administered. The plasma was separated by centrifugation at 3000×g for 5 min, then diluted with four volumes of 1× phosphate buffer saline (pH 7.4) containing 1% bovine serum albumin. A 100 μl sample of serum was assayed by ELISA for TNF-α (Genzyme; Cambridge Mass.).
The mean (±SEM) TNF-α level in six mice from each group was determined and the percent reduction in TNF levels was calculated.

male Sprague-Dawley rats [2] = assay: Cyclosporine-induced nephrotoxicity; conditions: for extracellular fluid volumes (ECF): second study, control 27.6±1.9, CsA and vehicle 27.5±1.7
Protocol: In the first study, male Sprague-Dawley rats (n=43) with a weight range of 240-290 g at the initiation of the cyclosporine A (CsA) treatment were divided into 4 weight matched groups. The groups were as follows: (1) Control: no CsA, no EX-2, treatment only with CsA vehicle (PBS) PO and EX-2 vehicle (also PBS) IP; (2) CsA: treatment with CsA (50 mg/kg in PBS administered PO daily at 0830 hr for 9 days) and IP injections of PBS (Ex-2 vehicle); (3) CsA and 50 μg: CsA treatment identical to group 2 with the addition of EX-2 (50 μg/kg IP administered daily at 0800 and 1700 hr in EX-2 vehicle); and (4) CsA and 500 μg: CsA treatment identical to groups 2 and 3, and EX-2 treatment protocol similar to group 3 except that the dose of EX-2 was 500 μg/kg BW. After deep anesthesia was assured, the rats were cannulated in the trachea (PE 240) jugular vein, femoral artery, and bladder (PE 50 for the previous 3 cannulations).After cannulation, infusion of ^3 H-inulin was initiated 50 min prior to the measurement period to assess glomerular filtration rate, renal blood flow and plasma flow. Renal blood flow was determined by the inulin extraction technique. At the end of the study, the kidneys were removed for histological analysis.
In the second study, male Sprague-Dawley rats (n=31) with a weight range of 240-290 g at the time of initiation of the cyclosporine treatment were divided into 4 weight-matched groups. The time course and protocol of this study matched the first study with the following exceptions: (1) The daily dose of CsA was reduced to 30 mg/kg and was administered subcutaneously (SC) and (2) the 50 μ/kg dose of EX-2 was substituted with a twice daily dose of 200 μg/kg. The 500 μg/kg dose of EX-2 was repeated in this study. Renal hemodynamics were determined and extracellular fluid volumes were also assessed.
In the second studio, where extracellular fluid volumes (ECF) were measured, there were no differences in ECF among control and treatment groups (27.6±1.9 in control, 27.5±1.7 in CsA and vehicle, 26.2±0.9 in CsA+200 μg/kg EX-2, and 25.7±1.4% in CsA+500 μg/kg EX-2).
The results from the two experiments are shown in FIGS. 1a and 1b and provide evidence that a cytokine restraining peptide of the present invention reduces cyclosporine-induced nephrotoxicity and the damage caused thereby.

## Ac-Nle-Gln-His-(D)Phe-Arg-(D)Trp-Gly-NH2 [EX-2]
Adult female Balb/c mice
  Inhibition of LPS-induced Lethality (increase in survival): 83%
Male Sprague-Dawley rats [1]
  Glomerulonephritis: Albumin (mg/day), % Reduction of induced increase: 62%
TNF-α
  Reduction in TNF levels: 50%
Male Sprague-Dawley rats [2]; CsA-treated rats
  changes in ECF as a result of treatment: no changes
  renal blood flow: not different from control
  urinary protein excretion compared to CsA-treated rats: did not increase
  urinary protein excretion normalized to glomerular filtration rate: trend to decreased
Male Sprague-Dawley rats [2]; both studies, CsA-treated rats
  GFR compared to CsA and vehicle controls: significantly increased
Male Sprague-Dawley rats [2]; CsA 30 mg/kg SC + 200 μg/kg EX-2 twice daily
  extracellular fluid volumes (ECF): 26.2±0.9%
Male Sprague-Dawley rats [2]; CsA 30 mg/kg SC + 500 μg/kg EX-2 twice daily
  extracellular fluid volumes (ECF): 25.7±1.4%

Reference: patent publication US5760001A, “Cytokine restraining agents and methods of use in pathologies and conditions associated with altered cytokine levels” (Trega Biosciences, Inc., priority 1995, dated 1998)
